# From patent US10849994B2, “Pharmaceutical composition comprising fluorine-18 labelled gases” (ASOCIACIÓN CENTRO DE INVESTIGACIÓN COOPERATIVA EN …, priority 2016, dated 2020)
# Assay: PET-CT ventilation imaging after inhalation of the radioactive gas
# Format: in vivo, rat (Sprague-Dawley)
# Settings: male rats
# Protocol: Imaging studies were conducted with [^18F]CF4.
# Male rats (n=2) weighing 350±14 g (Sprague-Dawley, Harlan, Udine, Italy) were used to perform PET studies. The animals were cared for and handled in accordance with the Guidelines for Accommodation and Care of Animals (European Convention for the Protection of Vertebrate Animals Used for Experimental and Other Scientific Purposes) and internal guidelines, and experimental procedures were approved by the Ethical Committee and local authorities.
# The radioactive gas was administered by inhalation, by mixing the mixture [^18F]CF4/CF4/Ne obtained at the end of the production process (process A) with the oxygen carrier gas. With that aim, the system depicted in FIG. 3 was implemented.
# PET studies were performed using an eXploreVista-CT small animal PET-CT system (GE Healthcare).
# Step 1: Rats were anesthetized in an induction chamber using a mixture of 3-4% isoflurane in O2.
# Step 2: Animals were rapidly moved into the PET-CT camera, were anaesthesia was maintained with a mixture of 1.5-2.0% isofluorane in O2. During the stay into the PET-CT camera, animals were kept normothermic using a heating blanket (Homeothermic Blanket Control Unit; Bruker). Regular breathing (frequency of 50±10 breaths/minute) was maintained by adjustment of anaesthetic conditions. Respiration and body temperature of the animals were monitored throughout the scan.
# Step 3: At t=0 min, with the animal under anaesthesia, acquisition of PET images was started in list mode.
# Step 4: At t=1 minute, the syringe pump was started and the radioactive gas ([^18F]CF4, diluted with Neon and non-radioactive CF4, 74 MBq, 2 mCi) was introduced in the main stream of oxygen and consequently administered to the animal.
# Step 5: At t=2 minutes, the syringe pump was stopped, and image acquisition was continued until t=10 minutes.
# Step 6: After finalising the PET image acquisition, a whole body CT scan was performed, providing anatomical information as well as the attenuation map, for the later image reconstruction.
# Images were reconstructed (decay and CT-based attenuation corrected) with OSEM-2D. Twenty nine frames (3×20s, 10×10s, 4×20s and 12×30s) were defined to gain information about the spatiotemporal distribution of the radioactivity. PET images were analysed using PMOD image analysis software (PMOD Technologies Ltd, Zurich, Switzerland). Volumes of interest (VOIs) were manually drawn in the lungs on the CT images. VOIs were then transferred to the PET images and the concentration of radioactivity was obtained for each organ and time frame as cps/cm^3. All frames were finally summed and re-processed to get more accurate images of the distribution of radioactivity within the lungs.
smiles,measurement,setting,value
"FC(F)(F)[18F] [[^18F]CF4, ^18F-labelled carbon tetrafluoride]","distribution of the radioactive gas in the lungs (summed PET-CT images, FIG. 8)","n=2, 74 MBq in O2/isoflurane, delivered t=1-2 min, all frames summed",uniform distribution of the radioactive gas in the lungs
same,elimination of the radioactivity from the lungs after delivery of the radioactive gas is discontinued,"n=2, after the syringe pump was stopped at t=2 min",almost complete elimination of the radioactivity is achieved in a few seconds
same,time-activity curve of a VOI drawn in the whole lungs: plateau (FIG. 9),"n=2, during gas delivery",reached immediately after the onset of contrast agent administration
same,distribution of the radioactive gas in the lungs (dynamic images),"n=2, dynamic PET frames",immediate distribution of the radioactive gas in the lungs
